Laboratory results published in ChEMBL document CHEMBL6083273, “Targeting Periplakin of Novel Benzenesulfonamides as Highly Selective Agonists for the Treatment of Vitiligo” (2024).
Calls of active or inactive are those of the source. The calls are words filed in the database; no cut-off is given here.

What was measured:
[1] = species on record: Danio rerio; assay: Induction of melanogenesis in zebrafish treated for 24 hrs by absorbance based assay (reference value: 98.2 to 100.3 %); type: functional
[2] = species on record: Danio rerio; assay: Induction of melanogenesis in zebrafish treated for 24 hrs by absorbance based assay; type: functional, organism-based
[3] = species on record: Danio rerio; assay: Induction of melanogenesis in zebrafish at 40 uM treated for 24 hrs by absorbance based assay relative to control; type: functional
[4] = species on record: Danio rerio; assay: Induction of melanogenesis in zebrafish at 10 uM treated for 24 hrs by absorbance based assay; type: functional, organism-based
[5] = tested on: Mus musculus; assay: Induction of melanogenesis in hydroquinone-induced vitiligo C57BL/6J mouse assessed as darker hair color administered topically for 20 days; type: functional, organism-based; details: route top, time 20.0 day
[6] = tested on: Mus musculus; assay: Induction of melanogenesis in hydroquinone-induced vitiligo C57BL/6J mouse at 1.5 % administered topically for 20 days by Masson-Fontana staining based analysis; type: functional, organism-based; details: route top, time 20.0 day
[7] = species on record: Danio rerio; assay: Induction of melanogenesis in wild-type zebrafish at 10 uM treated for 24 hrs by absorbance based assay; type: functional, organism-based
[8] = species on record: Danio rerio; assay: Induction of melanogenesis in zebrafish harboring PPL-/- at 10 uM treated for 24 hrs by absorbance based assay; type: functional, organism-based
[9] = Induction of melanogenesis in co-culture of HEK293 cells and mouse B16-F10 cells at 10 uM incubated for 48 hrs by Masson-Fontana staining based analysis relative to control; type: functional
[10] = Induction of melanogenesis in co-culture of HEK293 cells transfected with PPL (unknown origin) and mouse B16-F10 cells at 10 uM incubated for 48 hrs by Masson-Fontana staining based analysis relative to control; type: functional
[11] = species on record: Danio rerio; assay: Binding affinity to PPL in zebrafish incubated for 10 mins by LiP-SMap analysis; details: filed as agonist
[12] = species on record: Danio rerio; assay: Binding affinity to PPL in zebrafish at 10 uM by pull down assay; details: filed as agonist
[13] = tested on: Mus musculus; assay: In vivo agonist activity at PPL in skin of hydroquinone-induced vitiligo C57BL/6J mouse at 1.5 % administered topically for 20 days by immunofluorescence analysis; type: functional, organism-based; details: time 20.0 day
[14] = species on record: Danio rerio; assay: Effect on purine metabolism in zebrafish embryo at 10 uM by KEGG pathway-enrichment analysis; type: functional, organism-based
[15] = species on record: Danio rerio; assay: Effect on histidine metabolism in zebrafish embryo at 10 uM by KEGG pathway-enrichment analysis; type: functional, organism-based
[16] = species on record: Danio rerio; assay: Effect on pyrimidine metabolism in zebrafish embryo at 10 uM by KEGG pathway-enrichment analysis; type: functional, organism-based
[17] = tested on: Danio rerio; assay: In vivo agonist activity at PPL in zebrafish assessed as increase in cAMP content at 10 uM by ELISA; type: functional, organism-based
[18] = tested on: Danio rerio; assay: In vivo agonist activity at PPL in zebrafish assessed as increase in mitfa mRNA level at 10 uM by ISH analysis; type: functional, organism-based
[19] = tested on: Danio rerio; assay: In vivo agonist activity at PPL in zebrafish assessed as increase in mitfa mRNA level at 10 uM by qRT-PCR analysis; type: functional, organism-based
[20] = tested on: Danio rerio; assay: In vivo agonist activity at PPL in zebrafish assessed as increase in Tyr mRNA level at 10 uM by ISH analysis; type: functional, organism-based
[21] = tested on: Danio rerio; assay: In vivo agonist activity at PPL in zebrafish assessed as increase in Dct mRNA level at 10 uM by ISH analysis; type: functional, organism-based
[22] = species on record: Danio rerio; assay: Effect on cAMP content in zebrafish harboring PPL-/- at 10 uM by ELISA; type: functional, organism-based
[23] = species on record: Danio rerio; assay: Effect on mitfa mRMA level in zebrafish harboring PPL-/- at 10 uM by qRT-PCR analysis; type: functional
[24] = species on record: Danio rerio; assay: Effect on tryptophan metabolism in zebrafish embryo assessed as 3-HAA metabolite level at 10 uM by LC/MS analysis; type: functional
[25] = species on record: Danio rerio; assay: Effect on tryptophan metabolism in zebrafish embryo assessed as 3-HK metabolite level at 10 uM by LC/MS analysis; type: functional
[26] = species on record: Danio rerio; assay: Effect on tryptophan metabolism in zebrafish embryo assessed as 5-HIAA metabolite level at 10 uM by LC/MS analysis; type: functional
[27] = species on record: Danio rerio; assay: Effect on tryptophan metabolism in zebrafish embryo assessed as 5-HTOL metabolite level at 10 uM by LC/MS analysis; type: functional
[28] = species on record: Danio rerio; assay: Effect on tryptophan metabolism in zebrafish embryo assessed as 5-HTP metabolite level at 10 uM by LC/MS analysis; type: functional
[29] = species on record: Danio rerio; assay: Effect on tryptophan metabolism in zebrafish embryo assessed as AA metabolite level at 10 uM by LC/MS analysis; type: functional
[30] = species on record: Danio rerio; assay: Effect on tryptophan metabolism in zebrafish embryo assessed as IA metabolite level at 10 uM by LC/MS analysis; type: functional
[31] = species on record: Danio rerio; assay: Effect on tryptophan metabolism in zebrafish embryo assessed as IAA metabolite level at 10 uM by LC/MS analysis; type: functional
[32] = species on record: Danio rerio; assay: Effect on tryptophan metabolism in zebrafish embryo assessed as IAN metabolite level at 10 uM by LC/MS analysis; type: functional
[33] = species on record: Danio rerio; assay: Effect on tryptophan metabolism in zebrafish embryo assessed as ICA metabolite level at 10 uM by LC/MS analysis; type: functional
[34] = species on record: Danio rerio; assay: Effect on tryptophan metabolism in zebrafish embryo assessed as LE metabolite level at 10 uM by LC/MS analysis; type: functional
[35] = species on record: Danio rerio; assay: Effect on tryptophan metabolism in zebrafish embryo assessed as IGA metabolite level at 10 uM by LC/MS analysis; type: functional
[36] = species on record: Danio rerio; assay: Effect on tryptophan metabolism in zebrafish embryo assessed as ILA metabolite level at 10 uM by LC/MS analysis; type: functional
[37] = species on record: Danio rerio; assay: Effect on tryptophan metabolism in zebrafish embryo assessed as indole metabolite level at 10 uM by LC/MS analysis; type: functional
[38] = species on record: Danio rerio; assay: Effect on tryptophan metabolism in zebrafish embryo assessed as IPA metabolite level at 10 uM by LC/MS analysis; type: functional
[39] = species on record: Danio rerio; assay: Effect on tryptophan metabolism in zebrafish embryo assessed as KYNA metabolite level at 10 uM by LC/MS analysis; type: functional
[40] = species on record: Danio rerio; assay: Effect on tryptophan metabolism in zebrafish embryo assessed as NA metabolite level at 10 uM by LC/MS analysis; type: functional
[41] = species on record: Danio rerio; assay: Effect on tryptophan metabolism in zebrafish embryo assessed as NAS metabolite level at 10 uM by LC/MS analysis; type: functional
[42] = species on record: Danio rerio; assay: Effect on tryptophan metabolism in zebrafish embryo assessed as skatole metabolite level at 10 uM by LC/MS analysis; type: functional
[43] = species on record: Danio rerio; assay: Effect on tryptophan metabolism in zebrafish embryo assessed as Trp metabolite level at 10 uM by LC/MS analysis; type: functional
[44] = species on record: Danio rerio; assay: Effect on tryptophan metabolism in zebrafish embryo assessed as Xa metabolite level at 10 uM by LC/MS analysis; type: functional

C[C@H](Nc1nccc(NS(=O)(=O)c2cccc([N+](=O)[O-])c2)n1)c1ccc(-c2ccccc2)cc1
Activity [1]: 106.72%

C[C@H](Nc1nccc(NS(=O)(=O)c2cccc([N+](=O)[O-])c2)n1)c1ccccc1
Activity [1]: 99.105%

O=[N+]([O-])c1cccc(S(=O)(=O)Nc2ccnc(Nc3ccccc3)n2)c1
Activity [1]: 155.77%

Cc1cc(-c2ccc([C@H](C)Nc3nccc(NS(=O)(=O)c4cccc([N+](=O)[O-])c4)n3)cc2)ccc1F
Activity [2]: Dose-dependent-effect
Emax at 40 µM [3]: 197%
Activity [4]: Active
Activity [5]: Dose-dependent-effect
Activity [6]: Active; Calcipotriene And Ruxolitinib Was Considerably Less Than The Compound At Concentration Of 1.5%
Activity [7]: Active
Activity [8]: inactive
Activity [9]: 107.32%
Activity [10]: 137.24%
Activity [11]: Active
Activity [12]: Active
Activity [1]: 171.43%
Activity [13]: Active
Activity [14]: Active
Activity [15]: Active
Activity [16]: Active
Activity [17]: Active
Activity [18]: Active
Activity [19]: Active
Activity [20]: Active
Activity [21]: Active
Activity [22]: No effect
Activity [23]: No effect
Activity [24]: 3.14 nmol/kg
Activity [25]: 81.53 nmol/kg
Activity [26]: 76.93 nmol/kg
Activity [27]: 0.03 nmol/kg
Activity [28]: 41.08 nmol/kg
Activity [29]: 15.09 nmol/kg
Activity [30]: 21.8 nmol/kg
Activity [31]: 4.89 nmol/kg
Activity [32]: 16.28 nmol/kg
Activity [33]: 24.76 nmol/kg
Activity [34]: 41.42 nmol/kg
Activity [35]: 1.2 nmol/kg
Activity [36]: 109.9 nmol/kg
Activity [37]: 635.89 nmol/kg
Activity [38]: 20.08 nmol/kg
Activity [39]: 8.23 nmol/kg
Activity [40]: 2295.89 nmol/kg
Activity [41]: 0.07 nmol/kg
Activity [42]: 527.99 nmol/kg
Activity [43]: 203749.8 nmol/kg
Activity [44]: 399.41 nmol/kg

Cc1cc(-c2ccc([C@H](C)Nc3nccc(NS(=O)(=O)c4ccc(F)cc4)n3)cc2)ccc1F
Activity [1]: 135.12%
Activity [24]: 1.15 nmol/kg
Activity [25]: 109.36 nmol/kg
Activity [26]: 105.04 nmol/kg
Activity [28]: 42.55 nmol/kg
Activity [29]: 13.62 nmol/kg
Activity [30]: 21.42 nmol/kg
Activity [31]: 0.85 nmol/kg
Activity [32]: 16.03 nmol/kg
Activity [33]: 25.11 nmol/kg
Activity [34]: 53.82 nmol/kg
Activity [36]: 108.22 nmol/kg
Activity [37]: 754.01 nmol/kg
Activity [38]: 22.24 nmol/kg
Activity [39]: 1.12 nmol/kg
Activity [40]: 2175.78 nmol/kg
Activity [41]: 0.09 nmol/kg
Activity [42]: 506.87 nmol/kg
Activity [43]: 234150.9 nmol/kg
Activity [44]: 468.35 nmol/kg

Cc1ccc(S(=O)(=O)Nc2ccnc(N[C@@H](C)c3ccc(-c4ccc(F)c(C)c4)cc3)n2)cc1
Activity [1]: 135.69%

Cc1cccc(S(=O)(=O)Nc2ccnc(N[C@@H](C)c3ccc(-c4ccc(F)c(C)c4)cc3)n2)c1
Activity [1]: 46.585%

Cc1cc(-c2ccc([C@H](C)Nc3nccc(NS(=O)(=O)Cc4ccccc4)n3)cc2)ccc1F
Activity [1]: 132.22%

COc1ccc(S(=O)(=O)Nc2ccnc(N[C@@H](C)c3ccc(-c4ccc(F)c(C)c4)cc3)n2)cc1
Activity [1]: 67.56%

C[C@H](Nc1nccc(NS(=O)(=O)c2cccc([N+](=O)[O-])c2)n1)c1ccc(-c2ccc3ccccc3c2)cc1
Activity [1]: 77.723%

Cc1cc(-c2ccc([C@H](C)Nc3nccc(NS(=O)(=O)c4ccc5ccccc5c4)n3)cc2)ccc1F
Activity [1]: 89.349%

Cc1cc(-c2ccc([C@H](C)Nc3nccc(NS(=O)(=O)c4cc(C(F)(F)F)cc(C(F)(F)F)c4)n3)cc2)ccc1F
Activity [1]: 114.22%

C[C@H](Nc1nccc(NS(=O)(=O)c2cccc([N+](=O)[O-])c2)n1)c1ccc(-c2ccc(F)cc2)cc1
Activity [1]: 146.53%

Cc1cc(-c2ccc([C@H](C)Nc3nccc(NS(=O)(=O)c4ccccc4C)n3)cc2)ccc1F
Activity [1]: 63.17%
